Laboratory results: ChEMBL document CHEMBL2321745, “Synthesis and biological evaluation of substituted benzoxazoles as inhibitors of mPGES-1: use of a conformation-based hypothesis to facilitate compound design” (Bioorg Med Chem Lett, 2013)

Columns and labels:
[1] = Mean residence time in Sprague-Dawley rat at 1 mg/kg, po; format: ADME, organism-based; parameters: dose 1 mg/kg, route oral; details: in vivo
[2] = AUC (infinity) in Sprague-Dawley rat at 1 mg/kg, po; format: ADME, organism-based; parameters: time infinity, dose 1 mg/kg, route oral; details: plasma
[3] = Clearance in Sprague-Dawley rat at 1 mg/kg, iv; format: ADME, organism-based; parameters: dose 1 mg/kg, route intravenous; details: in vivo
[4] = Oral bioavailability in Sprague-Dawley rat at 1 mg/kg; format: ADME, organism-based; details: in vivo
[5] = Half life in Sprague-Dawley rat at 1 mg/kg, po; format: ADME, organism-based; parameters: dose 1 mg/kg, route oral; details: in vivo
[6] = Volume of distribution at steady state in Sprague-Dawley rat at 1 mg/kg, iv; format: ADME, organism-based; parameters: dose 1 mg/kg, route intravenous; details: in vivo, read-out: Vdss
[7] = Cmax in Sprague-Dawley rat at 1 mg/kg, po; format: ADME, organism-based; parameters: dose 1 mg/kg, route oral; details: in vivo
[8] = Apparent intrinsic clearance in human liver microsomes; format: ADME, Microsome; details: read-out: CLH(app)

| MRT [1] | AUC(0-inf) [2] | clearance [3] | bioavailability [4] | half-life [5] | Vd [6] | Cmax [7] | CLint scaled [8] | Structure (SMILES) |
| --- | --- | --- | --- | --- | --- | --- | --- | --- |
| 6.5 h | 1.1 µM·h | 9.4 mL/min/kg | 30% | 17 h | 2.1 L/kg | 150 nM | 4.6 mL/min/kg | CS(=O)(=O)[C@H]1CCC[C@H](NC(=O)C2CCN(c3nc4cc(Cl)c(C(F)(F)F)cc4o3)CC2)C1 |
| 0.78 h |  | 44 mL/min/kg | 15% | 0.54 h | 2 L/kg |  | 223 mL/min/kg | Cc1cc2oc(N3CCC(C(=O)N[C@H]4CCC[C@H](C(C)(C)O)C4)CC3)nc2cc1Cl |
| 3.6 h | 0.45 µM·h | 30 mL/min/kg | 38% | 5.4 h | 4.6 L/kg | 120 nM | 98 mL/min/kg | CC(C)(O)[C@H]1CCC[C@H](NC(=O)C2CCN(c3nc4cc(Cl)c(C(F)(F)F)cc4o3)CC2)C1 |
| 6.8 h | 1.9 µM·h |  | 42% |  | 2.9 L/kg | 200 nM |  | O=C(N[C@H]1CCC[C@H](CO)C1)C1CCN(c2nc3cc(Cl)c(-c4ccc(Cl)cc4)cc3o2)CC1 |
